Laboratory results as given in patent US20260102407A1, “TREATMENT METHODS” (priority 2020, published 2026).

Legend:
CD31 = assay: Immunohistochemical staining of rat retina, CD31; type: in vivo; conditions: lasered rat eyes 21 days after injury
Excerpt: Rat choroidal laser injury model. Male Brown Norway pigmented rats (8-14 week-old) were anesthetized by an intramuscular injection of Rompun® (xylazine)/Imalgene® (ketamine). Pupils were dilated by instillation of one drop of 0.5% tropicamide before laser burn. Six burns were created in both eyes on Day 0 by applying 170 mW of 532 nm laser light (Viridis laser, Quantel, France) on 75 μm spots around the optic nerve, between the main retinal vessel branches, for 0.1s, through the slit lamp and contact lens. Production of a bubble at the time of laser application confirmed the rupture of Bruch's membrane. […] After anaesthesia, 10% sodium fluorescein (250 μl/100 g body weight) was injected subcutaneously, and ocular fluorescence was recorded 10 min after dye injection. Fluorescein leakage was evaluated on Days 14 and 21 in the angiograms by two examiners masked to the study groups and graded for fluorescein intensity as follows: score 0: no leakage; 1: slightly stained; 2: moderately stained; 3: strongly stained.
Immunohistochemical staining of rat retina. […] IOD of positive staining (red chromogen) was assessed for CD31, VEGF-A165, pERK, FosB and VCAM-1 using Image-Pro Plus software (Cybernetics, Bethesda, MD). IOD in IPL and INL was quantified for CD31; OPL to OS for VEGF-A165; INL to ONL for pERK; GCL to OS for FosB; OLM for VCAM-1, using Image-Pro Plus. […]

rabbits = assay: GLP ocular tolerance study, single intravitreal injection; type: in vivo, rabbit; conditions: single intravitreal injection 10 μg/50 μl, after 28 days
p-SAPK/JNK = assay: Western blot, IL-1β-inducible p-SAPK/JNK in HMEC-1; type: cell-based, human; conditions: 1-30 μM
Method: Western blot analysis with extracts of cells treated with IL-13. HMEC-1 (80-90% confluency) were arrested in serum-free MCDB131 medium (Invitrogen, MD) without any growth factor for 48 h. Cells were treated with 30 μM compound in serum-free medium for 4 h, and incubated with 20 ng/ml IL-1β (Sigma, cat. SRE3083) in serum-free medium with the same concentration of compound for up to 4 h, unless otherwise indicated. Total protein was harvested as previously described using RIPA buffer with protease inhibitors. Proteins were resolved on 4-20% (w/v) SDS-polyacrylamide gradient gels and transferred to Immobilon-P PVDF membranes. […] Chemiluminescence was detected using the Western Lightning Chemiluminescence system and ImageQuant™ LAS 4000 biomolecular imager. Band intensity in images generated with the LAS 4000 using the same settings were quantified by NIH ImageJ.

## CCOC(=O)Nc1ccc2c(c1)C(=O)N(CC)c1ccccc1O2 [BT2, (10-ethyl-11-oxo-10,11-dihydro-dibenzo[b,f][1,4]oxazepin-2-yl)-carbamic acid ethyl ester]
CD31
  inducible CD31 staining in the IPL and INL: inhibited inducible CD31 staining
rabbits
  ocular tolerance: well tolerated macroscopically and histologically
p-SAPK/JNK
  IL-1β-inducible p-SAPK/JNK: no effect
